# Assay results from patent US11795162B2, “Modulators of the estrogen-related receptor” (Saint Louis University, priority 2017, dated 2023).
# Molecular target: T1, ERR gamma protein (Homo sapiens, UniProt P62508)
# T1 sequence (P62508 1-458): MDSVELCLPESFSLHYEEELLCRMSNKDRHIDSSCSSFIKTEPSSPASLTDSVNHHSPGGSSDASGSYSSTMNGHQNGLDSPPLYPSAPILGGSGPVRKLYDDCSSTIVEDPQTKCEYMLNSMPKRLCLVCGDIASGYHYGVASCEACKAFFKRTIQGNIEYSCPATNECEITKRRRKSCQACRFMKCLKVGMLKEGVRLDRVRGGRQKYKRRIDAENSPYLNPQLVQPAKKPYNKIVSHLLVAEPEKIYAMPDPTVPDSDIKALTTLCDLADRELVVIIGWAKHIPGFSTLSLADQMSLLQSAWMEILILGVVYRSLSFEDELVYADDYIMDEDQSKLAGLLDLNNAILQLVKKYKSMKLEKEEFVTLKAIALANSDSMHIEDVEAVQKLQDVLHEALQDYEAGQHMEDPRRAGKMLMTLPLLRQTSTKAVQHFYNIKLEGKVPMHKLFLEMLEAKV
# Assay: Protein thermal shift assay
# Format: binding
# Conditions: compound at 20 μM; ERR gamma protein 0.1 mg/mL, SYPRO-Orange; read-out: T.S. (thermal shift) range
# Description: Six replicate reactions were set up and run in Applied Biosystems Quantstudio 7 Real-Time PCR system. Data were collected at a ramp rate of 0.05° C./s from 24° C. through 95° C. and analyzed using Protein Thermal Shift Software 1.3.
row,ΔTm at 20 µM,Compound
1,0 to 2 °C,Cc1cccc(NC(=O)c2ccc(-c3ccc(O)cc3)s2)c1 [Compound 19]
2,0 to 2 °C,Cc1ccc(-c2ccc(C(=O)Nc3ccc(O)cc3)s2)cc1C [Compound 83]
3,0 to 2 °C,O=C(Nc1ccncc1)c1ccc(-c2ccc(C(F)(F)F)cc2)s1 [Compound 113]
4,0 to 2 °C,CC(C)c1ccc(-c2ccc(C(=O)Nc3cccnc3)s2)cc1 [Compound 138]
5,2 to 4 °C,N#Cc1cccc(-c2ccc(C(=O)Nc3ccc(O)cc3)s2)c1 [Compound 98]
6,0 to 2 °C,Nc1cccc(-c2ccc(C(=O)NCc3ccccc3)s2)c1 [Compound 142]
7,> 4 °C,O=C(Nc1cccc(F)c1)c1ccc(-c2ccc(O)c(C(F)(F)F)c2)s1 [Compound 61]
8,0 to 2 °C,CC(C)c1ccc(NC(=O)c2cc(-c3cccc(O)c3)[nH]n2)cc1 [Compound 130]
9,> 4 °C,"O=C(Nc1cccc(F)c1)c1ncc(-c2ccc(O)cc2)s1 [Compound 11, N-(3-fluorophenyl)-5-(4-hydroxyphenyl)thiazole-2-carboxamide]"
10,2 to 4 °C,O=C(Nc1ccc(F)cc1)c1ncc(-c2ccc(O)cc2)s1 [Compound 144]
11,0 to 2 °C,O=C(Nc1cccnc1)c1ccc(-c2cccc(F)c2)s1 [Compound 89]
12,0 to 2 °C,O=C(Nc1ccc(C(F)(F)F)cc1)c1ccc(-c2ccc(O)cc2)s1 [Compound 68]
13,2 to 4 °C,Cc1ccc(NC(=O)c2cc(-c3ccc(O)cc3)[nH]n2)cc1 [Compound 127]
14,2 to 4 °C,O=C(Nc1ccc(O)cc1)c1cc(-c2ccc(O)cc2)[nH]n1 [Compound 131]
15,2 to 4 °C,O=C(Nc1ccc(Cl)cc1)c1ccc(-c2ccccc2F)s1 [Compound 84]
16,0 to 2 °C,CC(C)(C)c1ccc(NC(=O)c2cc(-c3cccc(O)c3)[nH]n2)cc1 [Compound 128]
17,0 to 2 °C,O=C(Nc1cccc(C(F)(F)F)c1)c1ccc(-c2ccc(O)cc2)s1 [Compound 71]
18,0 to 2 °C,CC(C)(C)c1ccc(NC(=O)c2cc(-c3ccc(O)cc3)[nH]n2)cc1 [Compound 129]
19,> 4 °C,Nc1cccc(NC(=O)c2ccc(-c3ccc(Cl)cc3)s2)c1 [Compound 132]
20,0 to 2 °C,N#Cc1ccc(-c2ccc(C(=O)Nc3ccncc3)s2)cc1 [Compound 101]
21,0 to 2 °C,O=C(Nc1cccc(O)c1)c1ncc(-c2ccsc2)s1 [Compound 147]
22,0 to 2 °C,O=C(Nc1cccnc1)c1ccc(-c2ccccc2F)s1 [Compound 85]
23,0 to 2 °C,O=C(Nc1ccccc1F)c1ccc(-c2cccc(C(=O)C(F)(F)F)c2)s1 [Compound 154]
24,2 to 4 °C,O=C(Nc1ccc2ccccc2c1)c1cc(-c2cccc(O)c2)[nH]n1 [Compound 123]
25,0 to 2 °C,O=C(Nc1ccccc1F)c1ccc(-c2cccc(O)c2)s1 [Compound 63]
26,2 to 4 °C,O=C(Nc1ccc(Cl)cc1)c1cc(-c2ccc(O)cc2)[nH]n1 [Compound 124]
27,0 to 2 °C,O=C(Nc1cccnc1)c1ccc(-c2cccc(C(F)(F)F)c2)s1 [Compound 108]

row,ΔTm at 20 µM,Compound
1,0 to 2 °C,O=C(Nc1ccncc1)c1ccc(-c2ccccc2F)s1 [Compound 86]
2,0 to 2 °C,COc1ccc(NC(=O)c2ccc(-c3ccc(O)cc3)s2)cc1 [Compound 29]
3,0 to 2 °C,CC(C)Cc1ccc(-c2ccc(C(=O)Nc3cccnc3)s2)cc1 [Compound 77]
4,2 to 4 °C,CC(C)c1ccc(-c2ccc(C(=O)Nc3ccncc3)s2)cc1 [Compound 139]
5,2 to 4 °C,CC(C)Cc1ccc(-c2ccc(C(=O)Nc3ccc(O)cc3)s2)cc1 [Compound 79]
6,0 to 2 °C,O=C(Nc1cccnc1)c1ccc(-c2ccsc2)s1 [Compound 103]
7,0 to 2 °C,O=C(Nc1ccc(O)cc1)c1ccc(-c2ccc3ccccc3c2)s1 [Compound 121]
8,2 to 4 °C,N#Cc1ccc(-c2ccc(C(=O)Nc3ccc(O)cc3)s2)cc1 [Compound 102]
9,0 to 2 °C,O=C(NCc1ccc(Cl)cc1)c1ccc(-c2cccc(O)c2)o1 [Compound 136]
10,> 4 °C,O=C(Nc1ccc2ccccc2c1)c1ccc(-c2cccc(O)c2)s1 [Compound 53]
11,2 to 4 °C,O=C(Nc1ccncc1)c1ccc(-c2cccc(F)c2)s1 [Compound 90]
12,2 to 4 °C,"O=C(NCc1ccccc1)c1ccc(-c2ccc(Cl)cc2)s1 [Compound 2, N-benzyl-5-(4-chlorophenyl)thiophene-2-carboxamide]"
13,0 to 2 °C,Cc1ccc(-c2ccc(C(=O)Nc3ccncc3)s2)cc1C [Compound 82]
14,0 to 2 °C,CC(C)c1ccc(-c2ccc(C(=O)Nc3cccc(O)c3)s2)cc1 [Compound 140]
15,0 to 2 °C,O=C(Nc1ccc(O)cc1)c1cc(-c2cccc(O)c2)[nH]n1 [Compound 134]
16,0 to 2 °C,O=C(Nc1cccc(O)c1)c1cnc(-c2ccsc2)o1 [Compound 141]
17,0 to 2 °C,Cc1ccc(NC(=O)c2cc(-c3cccc(O)c3)[nH]n2)cc1 [Compound 126]
18,0 to 2 °C,"CC(C)c1cccc(-c2ccc(C(=O)Nc3ccc(O)cc3)s2)c1 [Compound 6, N-(4-hydroxyphenyl)-5-(3-isopropylphenyl)thiophene-2-carboxamide]"
19,0 to 2 °C,"Clc1ccc(-c2ccc(CNCc3ccccc3)s2)cc1 [Compound 3, N-benzyl-1-(5-(4-chlorophenyl)thiophen-2-yl)methanamine]"
20,2 to 4 °C,CC(C)Cc1ccc(-c2ccc(C(=O)Nc3ccncc3)s2)cc1 [Compound 78]
21,2 to 4 °C,O=C(Nc1cccc(F)c1)c1ccc(-c2ccc3[nH]ccc3c2)s1 [Compound 66]
22,0 to 2 °C,O=C(Nc1ccc2ccccc2c1)c1ccc(-c2ccc(O)cc2)s1 [Compound 31]
23,> 4 °C,O=C(Nc1cccc(B(O)O)c1)c1ccc(-c2ccsc2)s1 [Compound 57]
24,2 to 4 °C,Nc1cccc(-c2ccc(C(=O)Nc3ccc4ccccc4c3)s2)c1 [Compound 54]
25,0 to 2 °C,O=C(Nc1cccc(F)c1)c1ccc(-c2cnc(O)nc2)s1 [Compound 58]
26,0 to 2 °C,O=C(O)c1ccc(-c2ccc(C(=O)Nc3ccc(F)cc3)s2)cc1 [Compound 48]
27,0 to 2 °C,N#Cc1cccc(-c2ccc(C(=O)Nc3ccc(Cl)cc3)s2)c1 [Compound 96]

row,ΔTm at 20 µM,Compound
1,2 to 4 °C,O=C(NC1CCCCC1)c1ccc(-c2ccc(O)cc2)s1 [Compound 49]
2,0 to 2 °C,CC(C)Oc1ccc(-c2ccc(C(=O)Nc3ccncc3)s2)cc1 [Compound 116]
3,> 4 °C,"O=C(Nc1cccc(F)c1)c1ccc(-c2ccc(O)cc2)s1 [Compound 7, N-(3-fluorophenyl)-5-(4-hydroxyphenyl)thiophene-2-carboxamide]"
4,0 to 2 °C,O=C(Nc1ccc2ncsc2c1)c1ccc(-c2cccc(O)c2)o1 [Compound 42]
5,0 to 2 °C,CC(C)c1cccc(NC(=O)c2ccc(-c3cccc(O)c3)s2)c1 [Compound 151]
6,0 to 2 °C,N#Cc1cccc(-c2ccc(C(=O)Nc3cccnc3)s2)c1 [Compound 97]
7,0 to 2 °C,N#Cc1ccc(NC(=O)c2ccc(-c3cccc(O)c3)s2)cc1 [Compound 22]
8,0 to 2 °C,"CC(C)c1ccc(-c2ccc(COc3ccccc3)s2)cc1 [Compound 4, 2-(4-isopropylphenyl)-5-(phenoxymethyl)thiophene]"
9,0 to 2 °C,COc1ccc(NC(=O)c2ccc(-c3ccc(N)cc3)s2)cc1 [Compound 18]
10,0 to 2 °C,O=C(Nc1cccc(C(F)(F)F)c1)c1ccc(-c2ccncc2)s1 [Compound 70]
11,0 to 2 °C,CC(C)c1ccc(-c2ccc(C(=O)Nc3ccc(O)cc3)s2)cc1 [Compound 13]
12,2 to 4 °C,O=C(Nc1ccncc1)c1ccc(-c2cccc(C(F)(F)F)c2)s1 [Compound 109]
13,0 to 2 °C,Cc1ccc(-c2ccc(C(=O)Nc3cccnc3)s2)cc1C [Compound 81]
14,0 to 2 °C,O=C(Nc1cccnc1)c1ccc(-c2ccc(F)cc2)s1 [Compound 93]
15,0 to 2 °C,"O=C(Nc1ccc(O)cc1)c1coc(-c2ccsc2)n1 [Compound 10, N-(4-hydroxyphenyl)-2-(thiophen-3-yl)oxazole-4-carboxamide]"
16,0 to 2 °C,COc1ccc(NC(=O)c2ccc(-c3ccsc3)s2)cc1 [Compound 73]
17,0 to 2 °C,CC(C)Cc1ccc(-c2ccc(C(=O)Nc3ccc(Cl)cc3)s2)cc1 [Compound 76]
18,0 to 2 °C,O=C(Nc1ccc(F)cc1)c1nc(-c2cccc(O)c2)cs1 [Compound 150]
19,0 to 2 °C,"O=C(Nc1ccccc1F)c1ccc(-c2ccc(C(=O)C(F)(F)F)cc2)s1 [Compound 12, N-(2-fluorophenyl)-5-(4-(2,2,2-trifluoroacetyl)phenyl)thiophene-2-carboxamide]"
20,2 to 4 °C,O=C(Nc1cccnc1)c1ccc(-c2ccc3ccccc3c2)s1 [Compound 106]
21,2 to 4 °C,O=C(Nc1ccc(O)cc1)c1ccc(-c2cccc(C(F)(F)F)c2)s1 [Compound 110]
22,> 4 °C,O=C(Nc1cccc(F)c1)c1ncc(-c2cccc(O)c2)s1 [Compound 21]
23,0 to 2 °C,O=C(Nc1ccc(O)cc1)c1nc(-c2ccsc2)cs1 [Compound 153]
24,0 to 2 °C,CC(C)c1cccc(-c2ccc(C(=O)Nc3ccncc3)s2)c1 [Compound 119]
25,0 to 2 °C,N#Cc1ccc(-c2ccc(C(=O)Nc3cccnc3)s2)cc1 [Compound 100]
